Patent publication US20030199671A1, “Binding molecules for Fc-region polypeptides” (priority 2001, published 2003)
Like-named read-outs stand apart in the source and are kept apart here. One block for each compound: values may come before it. Positions of bridges follow the written chain, without caps; N, C: chain ends. Residues, ends and D or L forms follow the SMILES beside them. code X = not defined here; Su = not defined here

Assays:
human plasma IgG2 = target: T1, human plasma IgG2 (Homo sapiens, UniProt P01859); assay: Fluorescence anisotropy binding, Oregon Green labeled peptide
T1 construct: the individual human plasma IgG isoforms: IgG1, IgG2, IgG3, or IgG4; purchased Calbiochem; host or cells: human plasma
Procedure: (§1) Peptides were synthesized by BACHEM and then Oregon Green labeled and HPLC purified. Binding studies were performed using human plasma IgG isoforms: IgG1, IgG2, IgG3, and IgG4, obtained from Calbiochem.
(§2) Binding studies were carried out at either pH 4.0, 7.5, or 9.5, with or without salt in the following buffers:
(§3) 2) 10 mM Sodium Citrate, 500 mM Sodium Chloride, 0.01% Tween 20, pH 4.0;
(§4) 4) […], 500 mM Sodium Chloride, 0.01% Tween 20, pH 7.5;
(§5) 5) 10 mM Sodium Bicarbonate, 0.01% Tween 20, pH 9.5;
(§6) 6) 10 mM Sodium Bicarbonate, 500 mM Sodium Chloride, 0.01% Tween 20, pH 9.5; or […]

human plasma IgG3 = target: T2, human plasma IgG3 (Homo sapiens, UniProt P01860); assay: as above
T2 construct: the individual human plasma IgG isoforms: IgG1, IgG2, IgG3, or IgG4; purchased Calbiochem; host or cells: human plasma
Procedure: as §1, §2, §3, §4, §5, §6

human plasma IgG4 = target: T3, human plasma IgG4 (Homo sapiens, UniProt P01861); assay: as above
T3 construct: the individual human plasma IgG isoforms: IgG1, IgG2, IgG3, or IgG4; purchased Calbiochem; host or cells: human plasma
Procedure: as §1, §2, §3, §4, §5, §6

human plasma IgG1 = target: T4, human plasma IgG1 (Homo sapiens, UniProt P01857); assay: as above
T4 construct: the individual human plasma IgG isoforms: IgG1, IgG2, IgG3, or IgG4; purchased Calbiochem; host or cells: human plasma
Procedure: as §1, §2, §3, §4, §5, §6

human IgG [1] = assay type: binding; settings: Table 18; average ligand density 1.9 μmole/ml
Procedure: (§7) In addition, the following targets, all unfractionated IgGs, were also evaluated with selected immobilized peptides for species specificity characterization in a similar format: human IgG, goat IgG, bovine IgG, and mouse IgG (Sigma, product nos. I4506, I5256, I5506, and I15381, respectively). In addition, 10 μl aliquots of hydrolyzed NHS-activated Sepharose 4 Fast Flow (Amersham Pharmacia Biotech, product no. 17-0906-01) and immobilized recombinant Protein A (RepliGen Corp., product no. IPA-400) were also assayed as negative and positive controls. IgG targets were diluted into 10 mM phosphate buffer containing 150 mM NaCl and 0.01% Tween 20, pH 7.2 (PBST) or 50 mM Tris buffer containing, 150 mM NaCl and 0.01% Tween-20, pH 7.5 (TBST). Batch (static) binding and elution studies were conducted in a 96-well assay filterplate (Millipore MultiScreen-HV, with 0.45 μm Durapore membrane, product no. MAHVN4510). The target was allowed to incubate with the resin for 1-1.5 hours with shaking at room temperature. Unbound target was collected by centrifugation of samples from the assay plate directly into a low-UV absorbing 96-well collection plate (Costar, product no. 3635 or Greiner, product no. 655801). The unbound target was then quantitated by reading the absorbance at 280 nm (normalized to 1 cm pathlength, 1.4 mg/ml A280 extinction coefficient) of the collection plate on a microplate spectrophotometer (Molecular Devices Corp., SPECTRAmax PLUS) against a buffer blank.
(§8) The percentage bound target was determined by subtracting the mass determined as unbound from the corresponding condition's control values (control non-filtered added directly to the collection plate and/or the negative control). The assay plate was washed (3×) with 200 μl of binding buffer by vacuum filtration followed by addition of 100 μl of various elution conditions (e.g.: 0.1 M sodium bicarbonate buffer, pH 8.5 and/or 0.1 M sodium citrate buffer, pH 4.0). After a 30-60 minute incubation with shaking at room temperature, the eluted target was collected by centrifugation of the assay plate into another collection plate and quantitated in a similar manner. Percent elution of total load was then determined to characterize elution recovery efficiency under various conditions. The assay plate was then washed (3×) with 200 μl of binding buffer by vacuum filtration followed by addition of a resin cleaning condition (e.g., 0.1M CAPS buffer (3-[Cyclohexylamino]-1-propane-sulfonic acid), pH 11.5, to regenerate the resin for re-use. Percentage mass balance determination was calculated to be 90-100% on average.

human IgG1 = target: T5, human IgG1 (Homo sapiens, UniProt P01857); assay type: binding; settings: Table 18; average ligand density 1.9 μmole/ml
T5 construct: all human subtypes derived from myeloma patients; purchased Calbiochem 400120; host or cells: myeloma patients
Procedure: as §7, §8

human IgG2 = target: T6, human IgG2 (Homo sapiens, UniProt P01859); assay type: binding; settings: Table 18; average ligand density 1.9 μmole/ml
T6 construct: all human subtypes derived from myeloma patients; purchased Calbiochem 400122; host or cells: myeloma patients
Procedure: as §7, §8

human IgG [2] = assay: Static (filterplate) binding capacity; settings: 25 mg human IgG applied per ml resin
Procedure: These media were used to determine the effect of ligand density on human IgG binding capacity in both static (filterplate) and dynamic (mini-column) modes with commercial immobilized recombinant Protein A (Repligen, IPA400) at a single density as control. Actual ligand densities obtained ranged from 0.17 to 3.2 μmole/ml media as confirmed by quantitative amino acid analysis.
After incubation of the samples, with shaking, at room temperature for one hour, the supernatant liquid from each well, containing unbound IgG, was collected by centrifugation into the cognate well of a collection plate. The assay plate was washed three times with PBST (200 μl/wash) and bound IgG was eluted from the media samples by incubation for 30-60 minutes at room temperature in 100 μl Elution Buffer (100 mM CAPS, pH 11.5). Eluates were collected by centrifugation for analysis. Protein concentrations were determined from A280 measurements and plotted as a function of mg human IgG bound per ml resin vs. mg human IgG applied per ml resin.
The amount of IgG captured (estimated from IgG recovered in the elution step) by the various media is dependent upon both the IgG concentration and the ligand density. […] Under these static conditions, where both ligand and target concentrations are close to KD values, equilibrium binding is established and total capacities cannot be accurately determined. However, over the IgG range of 0 to 25 mg IgG applied per ml resin (0 to 2.5 mg/ml target added to 10 μl of resin), capture of IgG is linear. Beyond this point, up to a level of 200 mg IgG applied per ml resin, saturation becomes more pronounced.

IgG4 = IgG4 (Homo sapiens, UniProt P01861); assay type: binding; set-up: all human subtypes derived from myeloma patients; purchased Calbiochem 400126; host or cells: myeloma patients; settings: Table 18; average ligand density 1.9 μmole/ml
Procedure: as §7, §8

T4 sequence (P01857 1-330 isoform P01857-1): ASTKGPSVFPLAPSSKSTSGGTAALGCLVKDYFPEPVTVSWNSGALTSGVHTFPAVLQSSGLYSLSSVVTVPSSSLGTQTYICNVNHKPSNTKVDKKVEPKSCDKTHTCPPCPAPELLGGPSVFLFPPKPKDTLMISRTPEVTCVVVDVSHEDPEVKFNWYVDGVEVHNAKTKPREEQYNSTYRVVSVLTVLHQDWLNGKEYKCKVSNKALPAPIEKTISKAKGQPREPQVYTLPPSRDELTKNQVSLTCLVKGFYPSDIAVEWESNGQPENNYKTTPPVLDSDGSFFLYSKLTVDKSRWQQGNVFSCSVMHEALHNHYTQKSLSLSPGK
T2 sequence (P01860 1-377 isoform P01860-1): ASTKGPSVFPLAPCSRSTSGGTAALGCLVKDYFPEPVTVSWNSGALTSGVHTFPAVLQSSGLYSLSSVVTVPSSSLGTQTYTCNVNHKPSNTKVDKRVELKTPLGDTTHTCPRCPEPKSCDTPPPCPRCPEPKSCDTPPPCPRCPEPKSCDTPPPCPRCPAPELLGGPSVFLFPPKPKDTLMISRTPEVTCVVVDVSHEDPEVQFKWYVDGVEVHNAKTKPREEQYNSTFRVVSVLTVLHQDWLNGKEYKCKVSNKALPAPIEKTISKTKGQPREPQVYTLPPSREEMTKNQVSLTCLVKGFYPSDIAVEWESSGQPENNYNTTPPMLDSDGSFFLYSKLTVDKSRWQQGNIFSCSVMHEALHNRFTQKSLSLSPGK
T1 sequence (P01859 1-326 isoform P01859-1): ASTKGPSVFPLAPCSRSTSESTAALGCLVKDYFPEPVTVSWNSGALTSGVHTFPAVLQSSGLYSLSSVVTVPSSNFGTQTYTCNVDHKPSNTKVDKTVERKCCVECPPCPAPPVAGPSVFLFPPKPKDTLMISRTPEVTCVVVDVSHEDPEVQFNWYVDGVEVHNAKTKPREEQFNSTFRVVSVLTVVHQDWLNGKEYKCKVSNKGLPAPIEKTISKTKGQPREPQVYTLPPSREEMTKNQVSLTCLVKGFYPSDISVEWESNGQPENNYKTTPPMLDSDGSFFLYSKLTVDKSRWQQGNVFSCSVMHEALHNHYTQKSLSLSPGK
T3 sequence (P01861 1-327 isoform P01861-1): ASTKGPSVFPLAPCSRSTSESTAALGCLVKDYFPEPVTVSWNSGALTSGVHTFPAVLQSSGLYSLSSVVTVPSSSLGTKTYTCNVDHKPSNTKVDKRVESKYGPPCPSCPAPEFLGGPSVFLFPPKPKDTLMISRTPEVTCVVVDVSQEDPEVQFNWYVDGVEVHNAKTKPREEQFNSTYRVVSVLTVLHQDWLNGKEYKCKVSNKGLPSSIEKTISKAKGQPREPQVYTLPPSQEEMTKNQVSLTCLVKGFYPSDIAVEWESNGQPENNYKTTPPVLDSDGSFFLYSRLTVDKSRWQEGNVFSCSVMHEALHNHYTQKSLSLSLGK
T5 sequence (P01857 1-330 isoform P01857-1): as the sequence (P01857 1-330 isoform P01857-1) above
T6 sequence (P01859 1-326 isoform P01859-1): as the sequence (P01859 1-326 isoform P01859-1) above
Chain of IgG4 (P01861 1-327 isoform P01861-1): as the sequence (P01861 1-327 isoform P01861-1) above

Kd (human plasma IgG2; 10 nM Tris-HCl, 500 mM Sodium Chloride, pH 7.5, read-out: KD (μM) IgG2 pH 7.5 + salt): > 10 µM | Kd (human plasma IgG2; 10 mM Sodium Bicarbonate, 500 mM Sodium Chloride, pH 9.5, read-out: KD (μM) IgG2 pH 9.5 + salt): > 10 µM | Kd (human plasma IgG2; 10 mM Sodium Bicarbonate, pH 9.5, read-out: KD (μM) IgG2 pH 9.5 − salt): > 10 µM | Kd (human plasma IgG2; 10 mM Sodium Citrate, 500 mM Sodium Chloride, pH 4.0, read-out: KD (μM) IgG2 pH 4.0 + salt): > 10 µM | Kd (human plasma IgG2; 10 mM Sodium Citrate, pH 4.0, read-out: KD (μM) IgG2 pH 4.0 − salt): > 10 µM | Kd (human plasma IgG2; 10 mM Tris-HCl, pH 7.5, read-out: KD (μM) IgG2 pH 7.5 − salt): > 10 µM | Kd (human plasma IgG3; 10 nM Tris-HCl, 500 mM Sodium Chloride, pH 7.5, read-out: KD (μM) IgG3 pH 7.5 + salt): > 10 µM | Kd (human plasma IgG3; 10 mM Sodium Bicarbonate, 500 mM Sodium Chloride, pH 9.5, read-out: KD (μM) IgG3 pH 9.5 + salt): > 10 µM | Kd (human plasma IgG3; 10 mM Sodium Bicarbonate, pH 9.5, read-out: KD (μM) IgG3 pH 9.5 − salt): > 10 µM | Kd (human plasma IgG3; 10 mM Sodium Citrate, 500 mM Sodium Chloride, pH 4.0, read-out: KD (μM) IgG3 pH 4.0 + salt): ~1 µM | Kd (human plasma IgG3; 10 mM Sodium Citrate, pH 4.0, read-out: KD (μM) IgG3 pH 4.0 − salt): ~1 µM | Kd (human plasma IgG3; 10 mM Tris-HCl, pH 7.5, read-out: KD (μM) IgG3 pH 7.5 − salt): > 10 µM | Kd (human plasma IgG4; 10 nM Tris-HCl, 500 mM Sodium Chloride, pH 7.5, read-out: KD (μM) IgG4 pH 7.5 + salt): > 10 µM | Kd (human plasma IgG4; 10 mM Sodium Bicarbonate, 500 mM Sodium Chloride, pH 9.5, read-out: KD (μM) IgG4 pH 9.5 + salt): > 10 µM | Kd (human plasma IgG4; 10 mM Sodium Bicarbonate, pH 9.5, read-out: KD (μM) IgG4 pH 9.5 − salt): > 10 µM | Kd (human plasma IgG4; 10 mM Sodium Citrate, 500 mM Sodium Chloride, pH 4.0, read-out: KD (μM) IgG4 pH 4.0 + salt): > 10 µM | Kd (human plasma IgG4; 10 mM Sodium Citrate, pH 4.0, read-out: KD (μM) IgG4 pH 4.0 − salt): > 10 µM | Kd (human plasma IgG4; 10 mM Tris-HCl, pH 7.5, read-out: KD (μM) IgG4 pH 7.5 − salt): > 10 µM | Kd (human plasma IgG1; 10 nM Tris-HCl, 500 mM Sodium Chloride, pH 7.5, read-out: KD (μM) IgG1 pH 7.5 + salt): > 10 µM | Kd (human plasma IgG1; 10 mM Sodium Bicarbonate, 500 mM Sodium Chloride, pH 9.5, read-out: KD (μM) IgG1 pH 9.5 + salt): > 10 µM | Kd (human plasma IgG1; 10 mM Sodium Bicarbonate, pH 9.5, read-out: KD (μM) IgG1 pH 9.5 − salt): > 10 µM | Kd (human plasma IgG1; 10 mM Sodium Citrate, 500 mM Sodium Chloride, pH 4.0, read-out: KD (μM) IgG1 pH 4.0 + salt): > 10 µM | Kd (human plasma IgG1; 10 mM Sodium Citrate, pH 4.0, read-out: KD (μM) IgG1 pH 4.0 − salt): > 10 µM | Kd (human plasma IgG1; 10 mM Tris-HCl, pH 7.5, read-out: KD (μM) IgG1 pH 7.5 − salt): > 10 µM
Compound: CC(=O)N[C@@H](C)C(=O)NCC(=O)N[C@@H](Cc1ccc(O)cc1)C(=O)N[C@@H](Cc1c[nH]c2ccccc12)C(=O)N[C@@H](Cc1ccc(O)cc1)C(=O)N[C@H]1CSSC[C@@H](C(=O)N2CCC[C@H]2C(=O)N[C@@H](CC(C)C)C(=O)N[C@@H](Cc2ccc(O)cc2)C(=O)N2CCC[C@H]2C(=O)NCC(=O)N2CCC[C@H]2C(=O)N[C@@H](CCC(=O)O)C(=O)NCC(=O)NCC(=O)NCC(=O)N[C@@H](CCCCN)C(N)=O)NC(=O)[C@H](CCC(=O)O)NC(=O)[C@@H]2CCCN2C(=O)[C@H](CCCNC(=N)N)NC(=O)[C@H](CC(=O)O)NC(=O)[C@@H]2CCCN2C(=O)[C@H](Cc2ccccc2)NC(=O)[C@H](Cc2c[nH]c3ccccc23)NC1=O [DX413] (Ac-AGYWYCWFPDRPECPLYPGPEGGGK-NH2; disulfide 6-14 (inferred))

Batch Binding (% Capture of Total Load) hIgG (human IgG [1]): 49% | Batch Binding (% Capture of Total Load) hIgG1 (human IgG1): 66% | Batch Binding (% Capture of Total Load) hIgG2 (human IgG2): 54% | Decrease in apparent relative static capacity compared to DX249, DX877 and DX878 (human IgG [2]): ~2 fold | Batch Binding (% Capture of Total Load) hIgG4 (IgG4): 33%
Compound: Ac-GDDHMCVYTTWGELIWCDNH-X-Su-X-NH2 (Ac-GDDHMCVYTTWGELIWCDNH-{code X-Su-code X-NH2}; not fully specified (bridges); printed as Ac-GDDHMCVYTTWGELIWCDNH-X-Su-X-NH2; cysteine pairing not given here; reading uncertain) [DX909]
